These results are taken from article PMC6259277, “Synthesis, Gastroprotective Effect and Cytotoxicity of New Amino Acid Diterpene Monoamides and Diamides” (Molecules, 2010).

Data set [1] can be described thus: Cytotoxicity, neutral red uptake assay, MRC-5. The settings on record: human, MRC-5 normal lung fibroblasts, confluent monolayers, confluent cultures, 0-1000 µM, mean ± SD. It is filed as cell-based. The method, then: (§1) Human normal lung fibroblasts MRC-5 (ATCC CCL-171) and Hep G2 cells (ATCC HB-8065) were grown as monolayers in minimum essential Eagle´s medium (MEM), with Earle's salts, 2.0 mM L-glutamine (Sigma Chemical Co.) and 2.0 g/L sodium bicarbonate (Sigma Chemical Co.), supplemented with 10% heat-inactivated fetal bovine serum (FBS), 100 IU/mL penicillin and 100 µg/mL streptomycin in a humidified incubator with 5% CO2 in air at 37 °C. Cell passage was maintained between 10 and 16 for MRC-5 and between 79 and 82 for Hep G2 cells. The medium was changed every 2 days. Culture media, antibiotics and FBS were obtained from Invitrogen Corp.
(§2) Confluent cultures of MRC-5, AGS and Hep G2 cells were treated with medium containing the compounds at concentrations ranging from 0 up to 1000 µM. The products were first dissolved in DMSO and then in the corresponding culture medium supplemented with 2% FBS. The final content of DMSO in the test medium and controls was 1%. Cells were exposed for 24 h to the assayed compounds. Untreated cells served as controls. Each concentration was tested in quadruplicate together with the control and repeated three times in separate experiments. At the end of the incubation, the neutral red uptake (NRU) assay was carried out to determine cell viability. To calculate the IC50 values (concentration that produces a 50% inhibitory effect on the evaluated parameter) the results were transformed to percentage of controls and the IC50 value was graphically obtained from the dose-response curves.

Data set [2] concerns ethanol/HCl-induced gastric lesions. Nature of the data set: Ethanol/HCl-induced gastric lesion (ulcer) model in mice. Format: in vivo. As to conditions: for Gastroprotective effect: Lesion index: mean ± SD. The method, then: The gastroprotective activity of the compounds was determined in the ethanol/HCl-induced lesion model in mice. The purity of the tested compounds was higher than 95% by NMR analysis. Male Swiss albino mice weighing 30 ± 3 g were used. Animals were fed on certified Champion diet with free access to water under standard conditions of 12 h dark-light period, 50% relative humidity and 22 °C room temperature. Mice were randomly distributed into groups of eight animals each and fasted for 24 h with free access to water previous to the experiment. Fasting prior to ulcerogenic assays was used because 0.2 mL of the reference antisecretory drug lansoprazole (2-[[[3-methyl-4-(2,2,2-trifluroethoxy)-2-pyridyl]methyl]sulfinyl]benzimidazole) and the amides were administered orally. To keep the animal number to a minimum, dose-response studies were performed with the leucine derivatives 13 and 18 to set the conditions for single-dose comparison of gastroprotective effect. For the selected parent compounds, three doses were used: 25, 50 and 100 mg/kg. Fifty min after oral administration of the compounds, lansoprazole (20 mg/kg) or the vehicle (12% Tween 80, 10 mL/kg), all groups were orally treated with 0.2 mL of a solution containing 60% ethanol/0.3 M HCl (ethanol/HCl) for gastric lesion induction. Animals were sacrificed by cervical dislocation 1 h after the administration of ethanol/HCl, and the stomachs excised and inflated by injection of 5% formalin (1 mL). The ulcerated stomachs were fixed in 5% formalin for 30 min and opened along the greater curvature. The length (mm) of each lesion was measured, and the lesion index expressed as the sum of the length of all lesions. For comparison purposes, the products 1-5, 7-12, 14-16, 19 and 20 were assessed at a single oral dose of 25 mg/kg. The protocols were approved by the Universidad de Talca Institutional Animal Care and Use Committee, which follows the recommendations of the Canadian Council on Animal Care. Tween 80 and lansoprazole (> 98% purity by HPLC) were purchased from Sigma Chemical Co.
Results were expressed as the mean ± SD. In all experiments, statistical differences between several treatments and their respective control were determined by one-way analysis of variance (ANOVA) and when the F value was significant, post hoc differences were determined by the Dunnett's multiple comparison test. The level of significance was set at P < 0.05. All statistical analyses were performed using the software Statistica 5.1 (StatSoft, Inc.) and Statistical Package S-Plus 2000.

Data set [3] can be described thus: Cytotoxicity, neutral red uptake assay, Hep G2. It is filed as cell-based. The settings on record: human, Hep G2 cells, confluent monolayers, confluent cultures, 0-1000 µM, mean ± SD. The method, then: as §1, §2
Data set [4] can be described thus: Cytotoxicity, neutral red uptake assay, AGS. Format: cell-based. As to conditions: human, AGS gastric adenocarcinoma cells, confluent monolayers, confluent cultures, 0-1000 µM, mean ± SD. The method, then:
as §2, with “Human gastric adenocarcinoma cells AGS (ATCC CRL-1739) were grown as monolayers in Ham F-12 medium containing 1.0 mM L-glutamine and 1.5 g/L sodium bicarbonate, supplemented with 10% heat-inactivated FBS, 100 IU/mL penicillin and 100 µg/mL streptomycin in a humidified incubator with 5% CO2 in air at 37 °C. The cell passage was maintained between 42 and 48. The medium was changed every 2 days. Confluent” for “Confluent”

[5] abbreviates: Mus musculus, po, single oral dose 25 mg/kg, compared with untreated controls, read-out: Gastroprotective effect: % Lesion reduction.
[6] abbreviates: single oral dose 25 mg/kg, sum of lesion lengths.

Where only a bound is given, the exact number is not on record here.

In the case of `COC(=O)[C@H](Cc1c[nH]c2ccccc12)NC(=O)C[C@H](C)CCC1=C(C)CCC2[C@@](C)(C(=O)O)CCC[C@]12C` (stereo partly drawn) [Compound 5, Labd-8(9)-en-15,19-dioic acid, 15-tryptophanyl methyl ester amide], the IC50 (commonly the concentration that gives 50% inhibition) at 24 h in data set [1] is 260 ± 15 µM; in data set [3] it was 291 ± 11 µM; in data set [4], 149 ± 7 µM. The inhibition in vivo at 25 mg/kg in data set [2] (setting [5]) is 25.4%. Further, the “Gastroprotective effect: Lesion index” value in data set [2] (setting [6]) is recorded as 34.3 ±12.0 mm.

On to `C=C1CCC2[C@](C)(CCC[C@]2(C)C(=O)O)[C@H]1CC[C@@H](C)CC(=O)N1CCC[C@H]1C(=O)OC` (stereo partly drawn) [Compound 14, Labd-8(17)-en-15,19-dioic acid, 15-prolyl methyl ester amide], for which the IC50 at 24 h in data set [1] is > 1000 µM; in data set [3], 894 ± 56 µM; in data set [4] it was 297 ± 14 µM. The inhibition in vivo at 25 mg/kg in data set [2] (setting [5]) was determined as 59.8%. Also, the “Gastroprotective effect: Lesion index” value in data set [2] (setting [6]) came to 18.5 ± 11.8 mm.

On to `COC(=O)[C@@H](NC(=O)C[C@H](C)CCC1=C(C)CCC2[C@@](C)(C(=O)O)CCC[C@]12C)C(C)C` (stereo partly drawn) [Compound 2, Labd-8(9)-en-15,19-dioic acid, 15-valyl methyl ester amide], for which the IC50 at 24 h in data set [1], in data set [3] and in data set [4] was > 1000 µM each time. Further, the inhibition in vivo at 25 mg/kg in data set [2] (setting [5]) worked out at 58.5%. In addition, the “Gastroprotective effect: Lesion index” value in data set [2] (setting [6]) is reported as 19.1 ± 8.3 mm.

Take `Cc1c(OCC(F)(F)F)ccnc1C[S+]([O-])c1nc2ccccc2[nH]1` (stereo not drawn) [Lansoprazole, 2-[[[3-methyl-4-(2,2,2-trifluroethoxy)-2-pyridyl]methyl]sulfinyl]benzimidazole, reference compound]: the IC50 at 24 h in data set [1] stood at 306 ± 11 µM; in data set [3] it was 221 ± 9 µM; in data set [4] it was 162 ± 6 µM. For the same compound, the inhibition in vivo at 20 mg/kg in data set [2] (Mus musculus, po, reference drug at 20 mg/kg oral, compared with untreated controls, read-out: Gastroprotective effect: % Lesion reduction) is 79.3%. The “Gastroprotective effect: Lesion index” value in data set [2] (reference drug at 20 mg/kg oral, 20 mg/kg) is recorded as 9.5 ± 2.5 mm; in data set [2] (reference drug at 20 mg/kg oral, listed as lansoprazole, 20 mg/kg) it was 9.5 ± 2.5 mm.

On to `COC(=O)CNC(=O)C[C@H](C)CCC1=C(C)CCC2[C@@](C)(C(=O)NCC(=O)OC)CCC[C@]12C` (stereo partly drawn) [Compound 8, Labd-8(9)-en-15,19-dioic acid, 15,19-diglycyl methyl ester amide], for which the IC50 at 24 h in data set [1] amounted to 890 ± 45 µM; in data set [3], 841 ± 42 µM; in data set [4], 592 ± 30 µM. Also, the inhibition in vivo at 25 mg/kg in data set [2] (setting [5]) was 62%. In addition, the “Gastroprotective effect: Lesion index” value in data set [2] (setting [6]) stood at 17.5 ± 9.9 mm.

With `C=C1CCC2[C@](C)(CCC[C@]2(C)C(=O)NCC(=O)OC)[C@H]1CC[C@@H](C)CC(=O)NCC(=O)OC` (stereo partly drawn) [Compound 16, Labd-8(17)-en-15,19-dioic acid, 15,19-diglycyl methyl ester amide], the IC50 at 24 h was > 1000 µM in data set [1], 529 ± 36 µM in data set [3] and 483 ± 29 µM in data set [4]. The inhibition in vivo at 25 mg/kg in data set [2] (setting [5]) came to 73.5%. Further, the “Gastroprotective effect: Lesion index” value in data set [2] (setting [6]) was 12.2 ± 6.9 mm.

`C=C1CCC2[C@](C)(CCC[C@]2(C)C(=O)O)[C@H]1CC[C@@H](C)CC(=O)N[C@H](C(=O)OC)C(C)C` (stereo partly drawn) [Compound 12, Labd-8(17)-en-15,19-dioic acid, 15-valyl methyl ester amide]: the IC50 at 24 h in data set [1] is 380 ± 19 µM; in data set [3], 673 ± 34 µM; in data set [4], 309 ± 18 µM. Besides, in data set [2] (setting [5]), the inhibition in vivo at 25 mg/kg is 66.5%. Besides, the “Gastroprotective effect: Lesion index” value in data set [2] (setting [6]) was 15.4 ± 8.8 mm.

As to `C=C1CCC2[C@](C)(CCC[C@]2(C)C(=O)O)[C@H]1CC[C@@H](C)CC(=O)N[C@@H](Cc1c[nH]c2ccccc12)C(=O)OC` (stereo partly drawn) [Compound 15, Labd-8(17)-en-15,19-dioic acid, 15-tryptophanyl methyl ester amide], the IC50 at 24 h in data set [1], in data set [3] and in data set [4] was > 1000 µM each time. Further, in data set [2] (setting [5]), the inhibition in vivo at 25 mg/kg was 73.7%. Further, the “Gastroprotective effect: Lesion index” value in data set [2] (setting [6]) is 12.1 ± 4.7 mm.

Take `C=C1CCC2[C@](C)(CCC[C@]2(C)C(=O)N[C@@H](Cc2c[nH]c3ccccc23)C(=O)OCC)[C@H]1CC[C@@H](C)CC(=O)N[C@@H](Cc1c[nH]c2ccccc12)C(=O)OCC` (stereo partly drawn) [Compound 20, Labd-8(17)-en-15,19-dioic acid, 15,19-ditryptophanyl ethyl ester amide]: the IC50 at 24 h in data set [1], in data set [3] and in data set [4] was > 1000 µM throughout. For the same compound, the inhibition in vivo at 25 mg/kg in data set [2] (setting [5]) stood at 68.9%. The “Gastroprotective effect: Lesion index” value in data set [2] (setting [6]) came to 14.3 ± 10.7 mm.

As for `COC(=O)[C@@H]1CCCN1C(=O)C[C@H](C)CCC1=C(C)CCC2[C@@](C)(C(=O)O)CCC[C@]12C` (stereo partly drawn) [Compound 4, Labd-8(9)-en-15,19-dioic acid, 15-prolyl methyl ester amide], the IC50 at 24 h in data set [1] came out at 288 ± 11 µM; in data set [3], 321 ± 14 µM; in data set [4] it was 167 ± 7 µM. In data set [2] (setting [5]), the inhibition in vivo at 25 mg/kg was 70.9%. The “Gastroprotective effect: Lesion index” value in data set [2] (setting [6]) came to 13.4 ± 6.8 mm.

On to `COC(=O)[C@@H]1CCCN1C(=O)C[C@H](C)CCC1=C(C)CCC2[C@@](C)(C(=O)N3CCC[C@H]3C(=O)OC)CCC[C@]12C` (stereo partly drawn) [Compound 9, Labd-8(9)-en-15,19-dioic acid, 15,19-diprolyl methyl ester amide], for which the IC50 at 24 h in data set [1] turned out to be 119 ± 7 µM; in data set [3] it was 67 ± 3 µM; in data set [4], 82 ± 4 µM. Further, the inhibition in vivo at 25 mg/kg in data set [2] (setting [5]) amounted to 60%. For the same compound, in data set [2] (setting [6]), the “Gastroprotective effect: Lesion index” value was 18.4 ± 11.3 mm.

Regarding `C=C1CCC2[C@](C)(CCC[C@]2(C)C(=O)O)[C@H]1CC[C@@H](C)CC(=O)NCC(=O)OC` (stereo partly drawn) [Compound 11, Labd-8(17)-en-15,19-dioic acid, 15-glycyl methyl ester amide], the IC50 at 24 h was > 1000 µM in data set [1], 541 ± 22 µM in data set [3] and 361 ± 18 µM in data set [4]. For the same compound, the inhibition in vivo at 25 mg/kg in data set [2] (setting [5]) came out at 71.9%. In addition, the “Gastroprotective effect: Lesion index” value in data set [2] (setting [6]) was 12.9 ± 8.1 mm.

Turning to `COC(=O)[C@@H]1CCCN1C(=O)[C@@]1(C)CCC[C@]2(C)C(CC[C@@H](C)CC(=O)O)=C(C)CCC12` (stereo partly drawn) [Compound 7, Labd-8(9)-en-15,19-dioic acid, 19-prolyl methyl ester amide], the IC50 at 24 h in data set [1] was 459 ± 32 µM; in data set [3] it was 364 ± 15 µM; in data set [4] it was 266 ± 16 µM. In addition, the inhibition in vivo at 25 mg/kg in data set [2] (setting [5]) was determined as 53.9%. Further, the “Gastroprotective effect: Lesion index” value in data set [2] (setting [6]) came to 21.2 ± 9.5 mm.
